Measured values as given in US20250296971A1, “GASTRIC INHIBITORY PEPTIDE RECEPTOR LIGANDS” (priority 2021, published 2025).
*1 amine or outer side, *2 acyl side, *3 side chain or, on linkers, in order; H or OH if unused. Where a SMILES comes first, the peptide text is derived from it. Bridges are numbered along the chain shown (N, C = ends). [ ]: non-standard residue; d: D form. The star is where a group is joined. X3 = O=C(O)CN1CCN(CC(=O)O)CCN(CC(=O)NCCCOCCOCCOCCCN*)CCN(CC(=O)O)CC1; NH(1-deoxy-D-glucityl) = OC[C@@H](O)[C@@H](O)[C@H](O)[C@@H](O)CN*; DO3AM = NC(=O)CN1CCN(CC(N)=O)CCN(CC(=O)*)CCN(CC(N)=O)CC1; DOTA = O=C(O)CN1CCN(CC(=O)O)CCN(CC(=O)*)CCN(CC(=O)O)CC1; Maleimide(3,4-diyl) = O=C1NC(=O)C([*:2])=C1[*:1]; Trp(5-Cl) = N[C@@H](Cc1c[nH]c2ccc(Cl)cc12)C(=O)O; Phe(3,4-Cl2) = N[C@@H](Cc1ccc(Cl)c(Cl)c1)C(=O)O; Pyridine(2,6-diCH2) = c1cc(C[*:1])nc(C[*:2])c1; Pro(4R-NH2) = N[C@H]1CN[C@H](C(=O)O)C1; 1Nal = N[C@@H](Cc1cccc2ccccc12)C(=O)O; X23 = O=C(c1cccc(CSCCN[*:1])c1)[*:2]; Glutaryl = O=C(CCCC(=O)[*:2])[*:1]; Hyp = O=C(O)[C@@H]1C[C@@H](O)CN1; X1 = O=C(CN1CCC(N[*:1])CC1)[*:2]; Suc = O=C(CCC(=O)[*:2])[*:1]; αMeK = C[C@](N)(CCCCN)C(=O)O; hCys = N[C@@H](CCS)C(=O)O; Api = NC1(C(=O)O)CCNCC1; Thp = NC1(C(=O)O)CCOCC1; Dap = NC[C@H](N)C(=O)O; Aib = CC(C)(N)C(=O)O; Bn = c1ccc(C*)cc1; Sar = CNCC(=O)O

Target: T1, GIPR (CHO-K1-hGIPR cells) (Homo sapiens, UniProt P48546)
T1 construct: host or cells: CHO-K1
T1 sequence (P48546 22-466): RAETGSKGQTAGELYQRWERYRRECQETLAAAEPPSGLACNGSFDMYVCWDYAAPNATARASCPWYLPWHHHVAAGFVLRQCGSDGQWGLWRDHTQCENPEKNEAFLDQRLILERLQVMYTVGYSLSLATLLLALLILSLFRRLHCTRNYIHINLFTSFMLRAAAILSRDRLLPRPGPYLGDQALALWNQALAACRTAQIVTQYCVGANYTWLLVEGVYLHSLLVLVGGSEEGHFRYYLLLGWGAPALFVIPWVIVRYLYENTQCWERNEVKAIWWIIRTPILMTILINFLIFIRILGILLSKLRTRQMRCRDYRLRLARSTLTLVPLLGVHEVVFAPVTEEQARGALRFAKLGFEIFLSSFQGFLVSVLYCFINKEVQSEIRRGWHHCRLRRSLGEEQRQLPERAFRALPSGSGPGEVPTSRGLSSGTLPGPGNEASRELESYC
Assay: FACS binding assay
Conditions: competition with 20 nM GIP-057, 4° C. for 1 hour, read-out: pIC50 Category (converted)
In short: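 CHO-K1 cells expressing human GIPR, washed in PBS/1% FCS, then stained with 1 μg/mL APC-streptavidin for 30 min on ice.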

| SMILES | IC50 [µM] |
| --- | --- |
| CC[C@H](C)[C@@H]1NC(=O)[C@H](CC(C)C)NC(=O)C2(CCOCC2)NC(=O)[C@@H](NC(=O)[C@@H](CC(C)C)NC(=O)[C@H](CCC(=O)O)NC(=O)CN(C)C(=O)[C@H](Cc2ccc(Cl)c(Cl)c2)NC(=O)[C@H](Cc2ccc(Cl)c(Cl)c2)NC(=O)[C@H](CC(=O)O)NC(C)=O)CSCc2cccc(n2)CSC[C@@H](C(N)=O)NC1=O [GIP-357, Ac-Asp-Eaa-Eaa-Nmg-Glu-leu-[Cys(2Lut)-Thp-Leu-Ile-Cys]-NH2] (Ac-D[Phe(3,4-Cl2)][Phe(3,4-Cl2)][Sar]E[dL]C[Thp]LIC-NH2; linker 7-11 via Pyridine(2,6-diCH2)) | > 1 |
| CC[C@H](C)[C@@H]1NC(=O)[C@H](CC(C)C)NC(=O)C(C)(C)NC(=O)[C@@H](NC(=O)[C@@H](CC(C)C)NC(=O)[C@H](CCC(=O)O)NC(=O)[C@@H]2CCCN2C(=O)[C@H](Cc2c[nH]c3ccc(Cl)cc23)NC(=O)[C@H](Cc2c[nH]c3ccccc23)NC(=O)[C@H](CC(=O)O)NC(=O)CCC(=O)NCCCOCCOCCOCCCNC(=O)CN2CCN(CC(=O)O)CCN(CC(=O)O)CCN(CC(=O)O)CC2)CNC(=O)c2cccc(c2)CSCCNC1=O [GIP-358, DOTA-Ttds-Asp-Trp-5Clw-Pro-Glu-leu-[Dap(3MeBz)-Aib-Leu-Ile-AET]] ({X3-Suc}-DW[Trp(5-Cl)]PE[dL][Dap][Aib]LI[X23]; lactam 7-C) | < 0.01 |
| CC[C@H](C)[C@@H]1NC(=O)[C@H](CC(C)C)NC(=O)C2(CCOCC2)NC(=O)[C@@H](NC(=O)[C@@H](CC(C)C)NC(=O)[C@H](CCC(=O)O)NC(=O)[C@@H]2C[C@@H](O)CN2C(=O)[C@H](Cc2c[nH]c3ccc(Cl)cc23)NC(=O)[C@H](Cc2c[nH]c3ccccc23)NC(=O)[C@H](CC(=O)O)NC(C)=O)CSC2=C(SC[C@@H](C(N)=O)NC1=O)C(=O)NC2=O [GIP-360, Ac-Asp-Trp-5Clw-Hyp-Glu-leu-[Cys(mli)-Thp-Leu-Ile-Cys]-NH2] (Ac-DW[Trp(5-Cl)][Hyp]E[dL]C[Thp]LIC-NH2; linker 7-11 via Maleimide(3,4-diyl)) | < 0.01 |
| CC[C@H](C)[C@@H]1NC(=O)[C@H](CC(C)C)NC(=O)C2(CCOCC2)NC(=O)[C@@H](NC(=O)[C@@H](CC(C)C)NC(=O)[C@H](CCC(=O)O)NC(=O)[C@@H]2C[C@@H](O)CN2C(=O)[C@H](Cc2c[nH]c3ccc(Cl)cc23)NC(=O)[C@H](Cc2c[nH]c3ccccc23)NC(=O)[C@H](CC(=O)O)NC(C)=O)CSC2=C(SCC[C@@H](C(N)=O)NC1=O)C(=O)NC2=O [GIP-361, Ac-Asp-Trp-5Clw-Hyp-Glu-leu-[Cys(mli)-Thp-Leu-Ile-Hcy]-NH2] (Ac-DW[Trp(5-Cl)][Hyp]E[dL]C[Thp]LI[hCys]-NH2; linker 7-11 via Maleimide(3,4-diyl)) | < 0.01 |
| CC[C@H](C)[C@@H]1NC(=O)[C@H](CC(C)C)NC(=O)C2(CCOCC2)NC(=O)[C@@H](NC(=O)[C@@H](CC(C)C)NC(=O)[C@H](CCC(=O)O)NC(=O)[C@@H]2C[C@@H](O)CN2C(=O)[C@H](Cc2c[nH]c3ccc(Cl)cc23)NC(=O)[C@H](Cc2c[nH]c3ccccc23)NC(=O)[C@H](CC(=O)O)NC(C)=O)CCSC2=C(SC[C@@H](C(N)=O)NC1=O)C(=O)NC2=O [GIP-362, Ac-Asp-Trp-5Clw-Hyp-Glu-leu-[Hcy(mli)-Thp-Leu-Ile-Cys]-NH2] (Ac-DW[Trp(5-Cl)][Hyp]E[dL][hCys][Thp]LIC-NH2; linker 7-11 via Maleimide(3,4-diyl)) | 0.01 to 0.0794 |
| CC[C@H](C)[C@@H]1NC(=O)[C@H](CC(C)C)NC(=O)C2(CCOCC2)NC(=O)[C@@H](NC(=O)[C@@H](CC(C)C)NC(=O)[C@H](CCC(=O)O)NC(=O)[C@@H]2C[C@@H](O)CN2C(=O)[C@H](Cc2c[nH]c3ccc(Cl)cc23)NC(=O)[C@H](Cc2c[nH]c3ccccc23)NC(=O)[C@H](CC(=O)O)NC(C)=O)CCSSCC[C@@H](C(N)=O)NC1=O [GIP-363, Ac-Asp-Trp-5Clw-Hyp-Glu-leu-[Hey-Thp-Leu-Ile-Hcy]-NH2] (Ac-DW[Trp(5-Cl)][Hyp]E[dL][hCys][Thp]LI[hCys]-NH2; disulfide 7-11) | 0.01 to 0.0794 |
| CC[C@H](C)[C@@H]1NC(=O)[C@H](CC(C)C)NC(=O)C2(CCOCC2)NC(=O)[C@@H](NC(=O)[C@@H](CC(C)C)NC(=O)[C@H](CCC(=O)O)NC(=O)[C@@H]2C[C@@H](O)CN2C(=O)[C@H](Cc2c[nH]c3ccc(Cl)cc23)NC(=O)[C@H](Cc2c[nH]c3ccccc23)NC(=O)[C@H](CC(=O)O)NC(C)=O)CSSC[C@@H](C(N)=O)NC1=O [GIP-364, Ac-Asp-Trp-5Clw-Hyp-Glu-leu-[Cys-Thp-Leu-Ile-Cys]-NH2] (Ac-DW[Trp(5-Cl)][Hyp]E[dL]C[Thp]LIC-NH2; disulfide 7-11) | 0.1 to 0.794 |
| CC[C@H](C)[C@H](NC(=O)[C@H](CC(C)C)NC(=O)[C@H](C)NC(=O)[C@H](CSCc1ccccc1)NC(=O)[C@H](CC(C)C)NC(=O)[C@H](CCC(=O)O)NC(=O)[C@@H]1CCCN1C(=O)[C@H](Cc1c[nH]c2ccccc12)NC(=O)[C@H](Cc1c[nH]c2ccccc12)NC(=O)[C@H](CC(=O)O)NC(=O)[C@H](Cc1ccc(O)cc1)NC(=O)[C@@H](N)CCSC)C(=O)N[C@@H](CSC)C(N)=O [GIP-368] (H-MYDWWPELC(Bn)ALIC(Me)-NH2) | 0.1 to 0.794 |
| CC[C@H](C)[C@H](NC(=O)[C@H](CC(C)C)NC(=O)[C@H](C)NC(=O)[C@H](CSC)NC(=O)[C@H](CC(C)C)NC(=O)[C@H](CCC(=O)O)NC(=O)[C@@H]1CCCN1C(=O)[C@H](Cc1c[nH]c2ccccc12)NC(=O)[C@H](Cc1c[nH]c2ccccc12)NC(=O)[C@H](CC(=O)O)NC(=O)[C@H](Cc1ccc(O)cc1)NC(=O)[C@@H](N)CCSC)C(=O)N[C@@H](CSCc1ccccc1)C(N)=O [GIP-369] (H-MYDWWPELC(Me)ALIC(Bn)-NH2) | > 1 |
| CC[C@H](C)[C@@H]1NC(=O)[C@H](CC(C)C)NC(=O)C2(CCN(C(=O)CN3CCN(CC(N)=O)CCN(CC(N)=O)CCN(CC(N)=O)CC3)CC2)NC(=O)[C@@H](NC(=O)[C@@H](CC(C)C)NC(=O)[C@H](CCC(=O)O)NC(=O)[C@@H]2C[C@@H](N)CN2C(=O)[C@H](Cc2c[nH]c3ccc(Cl)cc23)NC(=O)[C@H](Cc2c[nH]c3ccccc23)NC(=O)[C@H](CC(=O)O)NC(=O)CCCC(=O)NC[C@H](O)[C@@H](O)[C@H](O)[C@H](O)CO)CSCc2cccc(n2)CSC[C@@H](C(=O)NC2CCN(CC(=O)N[C@H](CCC(=O)NC[C@H](O)[C@@H](O)[C@H](O)[C@H](O)CO)C(N)=O)CC2)NC1=O [GIP-370, AGLU-Glutar-Asp-Trp-5Clw-Tap-Glu-leu-[Cys(2Lut)-Apc(DOTAM)-Leu-Ile-Cys]-APAc-glu(AGLU)-NH2] ({NH(1-deoxy-D-glucityl)-Glutaryl}-DW[Trp(5-Cl)][Pro(4R-NH2)]E[dL]C[Api](DO3AM)LIC[X1][dE](NH(1-deoxy-D-glucityl))-NH2; linker 7-11 via Pyridine(2,6-diCH2)) | < 0.01 |
| CC[C@H](C)[C@@H]1NC(=O)[C@H](CC(C)C)NC(=O)[C@](C)(CCCCNC(=O)CN2CCN(CC(=O)O)CCN(CC(=O)O)CCN(CC(=O)O)CC2)NC(=O)[C@@H](NC(=O)[C@@H](CC(C)C)NC(=O)[C@H](CCC(=O)O)NC(=O)[C@@H]2C[C@@H](N)CN2C(=O)[C@H](Cc2c[nH]c3ccc(Cl)cc23)NC(=O)[C@H](Cc2c[nH]c3ccccc23)NC(=O)[C@H](CC(=O)O)NC(=O)CCCC(=O)NC[C@H](O)[C@@H](O)[C@H](O)[C@H](O)CO)CSCc2cccc(n2)CSC[C@@H](C(=O)NC2CCN(CC(=O)N[C@H](CCC(=O)NC[C@H](O)[C@@H](O)[C@H](O)[C@H](O)CO)C(N)=O)CC2)NC1=O [GIP-371, AGLU-Glutar-Asp-Trp-5Clw-Tap-Glu-leu-[Cys(2Lut)-Amk(DOTA)-Leu-Ile-Cys]-APAc-glu(AGLU)-NH] ({NH(1-deoxy-D-glucityl)-Glutaryl}-DW[Trp(5-Cl)][Pro(4R-NH2)]E[dL]C[αMeK](DOTA)LIC[X1][dE](NH(1-deoxy-D-glucityl))-NH2; linker 7-11 via Pyridine(2,6-diCH2)) | < 0.01 |
| CC[C@H](C)[C@@H]1NC(=O)[C@H](CC(C)C)NC(=O)C2(CCOCC2)NC(=O)[C@@H](NC(=O)[C@@H](CC(C)C)NC(=O)[C@H](CCC(=O)O)NC(=O)[C@@H]2C[C@@H](O)CN2C(=O)[C@H](Cc2c[nH]c3ccc(Cl)cc23)NC(=O)[C@H](Cc2c[nH]c3ccc(Cl)cc23)NC(=O)[C@H](CC(=O)O)NC(C)=O)CSCc2cccc(n2)CSC[C@@H](C(N)=O)NC1=O [GIP-379, Ac-Asp-5Clw-5Clw-Hyp-Glu-leu-[Cys(2Lut)-Thp-Leu-Ile-Cys]-NH2] (Ac-D[Trp(5-Cl)][Trp(5-Cl)][Hyp]E[dL]C[Thp]LIC-NH2; linker 7-11 via Pyridine(2,6-diCH2)) | < 0.01 |
| CC[C@H](C)[C@@H]1NC(=O)[C@H](CC(C)C)NC(=O)C2(CCOCC2)NC(=O)[C@@H](NC(=O)[C@@H](CC(C)C)NC(=O)[C@H](CCC(=O)O)NC(=O)[C@@H]2C[C@@H](O)CN2C(=O)[C@H](Cc2c[nH]c3ccc(Cl)cc23)NC(=O)[C@H](Cc2cccc3ccccc23)NC(=O)[C@H](CC(=O)O)NC(C)=O)CSCc2cccc(n2)CSC[C@@H](C(N)=O)NC1=O [GIP-380, Ac-Asp-1Ni-5Clw-Hyp-Glu-leu-[Cys(2Lut)-Thp-Leu-Ile-Cys]-NH2] (Ac-D[1Nal][Trp(5-Cl)][Hyp]E[dL]C[Thp]LIC-NH2; linker 7-11 via Pyridine(2,6-diCH2)) | < 0.01 |
